Source: patent US8722683B2, “Benzodioxole piperazine compounds” (Hoffmann LA-Roche Inc., priority 2011, dated 2014)
pKi: −log10 of the molar value. Read-outs that look alike come from different tables or passages of the source.

Assays:
[1] = molecular target: D2 receptor (Homo sapiens (Human), UniProt P14416); assay: Radioligand binding ([3H]-spiperone) to cloned D2 receptor expressed in HEK-293 EBNA cells; settings: HEK293 EBNA membranes, 0.7 nM [3H]-spiperone
[2] = molecular target: 5-HT2A receptor (Homo sapiens (Human), UniProt P28223); assay: Radioligand binding ([3H]-ketanserin) to cloned 5-HT2A receptor expressed in HEK-293 EBNA cells
Method: HEK293 EBNA cells were transiently transfected with expression plasmids encoding for the human D2 or D3 or for the human 5-HT2A receptor, respectively. The cells were harvested 48 h post-transfection, washed three times with cold PBS and stored at −80° C. prior to use. The pellet was suspended in cold 50 mM Tris-HCl buffer containing 10 mM EDTA (pH 7.4) and was homogenized with a Polytron (Kinematica AG, Basel, Switzerland) for 20-30 sec at 12.000 rpm. After centrifugation at 48.000×g for 30 min at 4° C., the pellet was resuspended in cold 10 mM Tris-HCl buffer containing 0.1 mM EDTA (pH 7.4), homogenized, and centrifuged as above. This pellet was further resuspended in a smaller volume of ice cold 10 mM Tris-HCl buffer containing 0.1 mM EDTA (pH 7.4) and homogenized with a Polytron for 20-30 sec at 12.000 rpm. The protein content of this homogenate was determined with the Bio-Rad (Bradford) Protein Assay (Biorad Laboratories GmbH, München, Germany) according to the instructions of the manufacturer using gamma globulin as the standard. This homogenate was stored at −80° C. in aliquots and thawed immediately prior to use.
Radioligand Binding Assay
Aliquots of membrane preparations were thawed at RT, resupended in assay buffer (D2, D3: 50 mM Tris-HCl, 120 mM NaCl, 5 mM MgCl2, 1 mM EDTA, 5 mM KCl, 1.5 mM CaCl2, pH=7.4; 5-HT2A: 50 mM Tris-HCl, 10 mM MgCl2, 1 mM EGTA, pH=7.4), homogenized with a Polytron for 20-30 sec at 12.000 rpm and adjusted to a final concentration of approximately 7.5 μg protein/well (D2, D3) and 15 μg protein/well (5-HT2A), respectively.
The binding affinity (Ki) of the compounds was determined using radioligand binding. […] The nonspecific binding was determined with equally composed reaction mixtures in the presence of 10 μM unlabelled spiperone. Per well 45 μl of Microscint 40 (Perkin Elmer, Schwerzenbach, Switzerland) was added, plates for sealed, shaken for 20 min and counted for 3 min on a Topcount Microplate Scintillation Counter (Canberra Packard SA, Zürich, Switzerland) with quenching correction.
The CPM value for each duplicate of a concentration of competing compound was averaged (y1), then the % specific binding was calculated according to the equation (((y1−non-specific)/(total binding−non-specific))×100). Graphs were plotted with the % specific binding using XLfit, a curve fitting program that iteratively plots the data using Levenberg-Marquardt algorithm. The single site competition analysis equation used was y=A+((B−A)/(1+((x/C)D))), where y is the % specific binding, A is the minimum y, B is the maximum y, C is the IC50, x is the log 10 of the concentration of the competing compound and D is the slope of the curve (the Hill Coefficient). […] The affinity constant (Ki) was calculated using the Cheng-Prusoff equation Ki=(IC50/1+([L]/Kd), where [L] is the concentration of radioligand and Kd is the dissociation constant of the radioligand at the receptor as determined by the saturation isotherm.

[3] = molecular target: D3 receptor (Homo sapiens (Human), UniProt P35462); assay: Radioligand binding ([3H]-spiperone) to cloned D3 receptor expressed in HEK-293 EBNA cells; settings: HEK293 EBNA membranes, 0.5 nM [3H]-spiperone
[4] = human 5-HT2A receptor, HEK293 EBNA membranes, 1.1 nM [3H]-ketanserin

Chain of D2 receptor (P14416 whole entry): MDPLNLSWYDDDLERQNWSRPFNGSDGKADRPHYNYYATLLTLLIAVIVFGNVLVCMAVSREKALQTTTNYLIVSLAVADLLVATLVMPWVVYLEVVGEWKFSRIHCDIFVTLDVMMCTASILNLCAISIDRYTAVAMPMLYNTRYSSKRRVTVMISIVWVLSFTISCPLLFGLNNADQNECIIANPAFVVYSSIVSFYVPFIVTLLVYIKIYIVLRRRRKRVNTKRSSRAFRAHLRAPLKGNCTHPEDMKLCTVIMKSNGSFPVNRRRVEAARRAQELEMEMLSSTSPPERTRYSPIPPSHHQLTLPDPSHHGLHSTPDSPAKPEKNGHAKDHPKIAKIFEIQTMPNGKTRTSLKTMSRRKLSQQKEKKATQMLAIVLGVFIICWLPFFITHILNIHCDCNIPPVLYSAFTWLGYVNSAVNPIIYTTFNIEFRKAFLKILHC
Chain of D3 receptor (P35462 whole entry): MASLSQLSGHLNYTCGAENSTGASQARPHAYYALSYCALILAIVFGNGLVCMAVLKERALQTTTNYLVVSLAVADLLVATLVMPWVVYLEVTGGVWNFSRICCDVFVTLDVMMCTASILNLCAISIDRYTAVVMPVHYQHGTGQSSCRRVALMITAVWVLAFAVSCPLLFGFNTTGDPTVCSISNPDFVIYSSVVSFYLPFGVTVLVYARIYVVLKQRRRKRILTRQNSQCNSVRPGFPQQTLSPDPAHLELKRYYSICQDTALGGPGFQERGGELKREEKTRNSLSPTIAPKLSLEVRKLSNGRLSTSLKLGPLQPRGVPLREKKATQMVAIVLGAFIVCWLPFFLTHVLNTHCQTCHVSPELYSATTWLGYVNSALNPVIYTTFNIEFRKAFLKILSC
Chain of 5-HT2A receptor (P28223 whole entry): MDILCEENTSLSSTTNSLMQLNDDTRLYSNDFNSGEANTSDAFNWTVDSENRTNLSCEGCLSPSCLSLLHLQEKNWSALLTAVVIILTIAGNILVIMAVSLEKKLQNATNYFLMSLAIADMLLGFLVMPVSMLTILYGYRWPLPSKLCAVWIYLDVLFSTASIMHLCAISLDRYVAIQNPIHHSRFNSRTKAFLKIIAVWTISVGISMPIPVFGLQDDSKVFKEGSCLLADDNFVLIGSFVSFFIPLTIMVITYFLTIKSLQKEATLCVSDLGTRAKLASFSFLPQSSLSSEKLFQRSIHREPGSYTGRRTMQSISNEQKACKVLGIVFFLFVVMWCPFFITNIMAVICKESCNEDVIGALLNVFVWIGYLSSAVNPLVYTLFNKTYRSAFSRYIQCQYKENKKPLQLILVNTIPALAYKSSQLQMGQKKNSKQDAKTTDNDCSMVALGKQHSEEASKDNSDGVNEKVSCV

Row | SMILES | pKi [1] | pKi [2] | pKi [3] | pKi [2, 4] | melting point [°C]
1 | CCC(O)C(=O)N[C@H]1CC[C@H](CCN2CCN(c3cccc4c3OCO4)CC2)CC1 (stereo partly drawn) [Example 38, Trans-N-{4-[2-(4-Benzo[1,3]dioxol-4-yl-piperazin-1-yl)-ethyl]-cyclohexyl}-2-hydroxy-butyramide] | 6.91 | 7.59 | 7.90 | – | –
2 | O=C(N[C@H]1CC[C@H](CCN2CCN(c3cccc4c3OCO4)CC2)CC1)C1CCS(=O)(=O)C1 (stereo partly drawn) [Example 52, 1,1-Dioxo-tetrahydro-1,6-thiophene-3-carboxylic acid-trans-N-{4-[2-(4-benzo[1,3]dioxol-4-yl-piperazin-1-yl)-ethyl]-cyclohexyl}-amide] | 7.23 | – | 8.45 | 8.37 | –
3 | CN1CCN(CC(=O)N[C@H]2CC[C@H](CCN3CCN(c4cccc5c4OCO5)CC3)CC2)CC1 [Example 61, Trans-N-{4-[2-(4-Benzo[1,3]dioxol-4-yl-piperazin-1-yl)-ethyl]-cyclohexyl}-2-(4-methyl-piperazin-1-yl)-acetamide] | 7.42 | 7.80 | 8.33 | – | –
4 | [2H]C1([2H])Oc2cccc(N3CCN(CC[C@H]4CC[C@H](NC(=O)C[C@H]5COCCO5)CC4)CC3)c2O1 [Example 78, N-trans-{4-[2-(4-Benzo(2,2-D2)-[1,3]dioxol-4-yl-piperazin-1-yl)-ethyl]-cyclohexyl}-2-(S)-[1,4]dioxan-2-yl-acetamide] | 6.70 | – | – | 7.87 | –
5 | CC1(C(=O)N[C@H]2CC[C@H](CCN3CCN(c4cccc5c4OCO5)CC3)CC2)COC1 [Example 58, 3-Methyl-oxetane-3-carboxylic acid-trans-N-{4-[2-(4-benzo[1,3]dioxol-4-yl-piperazin-1-yl)-ethyl]-cyclohexyl}-amide] | 7.09 | 7.81 | 8.17 | – | –
6 | CC(C)[C@H](O)C(=O)N[C@H]1CC[C@H](CCN2CCN(c3cccc4c3OCO4)CC2)CC1 [Example 40, (S)-Trans-N-{4-[2-(4-Benzo[1,3]dioxol-4-yl-piperazin-1-yl)-ethyl]-cyclohexyl}-2-hydroxy-3-methyl-butyramide] | 7.13 | 7.65 | 7.83 | – | –
7 | O=C(CC1COC1)N[C@H]1CC[C@H](CCN2CCN(c3cccc4c3OCO4)CC2)CC1 [Example 22, Trans-N-{4-[2-(4-Benzo[1,3]dioxol-4-yl-piperazin-1-yl)-ethyl]-cyclohexyl}-2-oxetan-3-yl-acetamide] | 6.97 | – | 8.69 | – | 190
8 | CN1CCC(C(=O)N[C@H]2CC[C@H](CCN3CCN(c4cccc5c4OCO5)CC3)CC2)CC1 [Example 57, 1-Methyl-piperidine-4-carboxylic acid-trans-N-{4-[2-(4-benzo[1,3]dioxol-4-yl-piperazin-1-yl)-ethyl]-cyclohexyl}-amide] | 7.20 | 7.82 | 7.60 | – | –
9 | O=C(CC1COCCO1)N[C@H]1CC[C@H](CCN2CCN(c3cccc4c3OCO4)CC2)CC1 (stereo partly drawn) [Example 3, Trans-N-{4-[2-(4-Benzo[1,3]dioxol-4-yl-piperazin-1-yl)-ethyl]-cyclohexyl}-2-[1,4]dioxan-2-yl-acetamide] | 6.70 | 7.93 | – | – | –
10 | CC(C)[C@@H](O)C(=O)N[C@H]1CC[C@H](CCN2CCN(c3cccc4c3OCO4)CC2)CC1 [Example 39, (R)-Trans-N-{4-[2-(4-Benzo[1,3]dioxol-4-yl-piperazin-1-yl)-ethyl]-cyclohexyl}-2-hydroxy-3-methyl-butyramide] | 7.05 | 7.46 | 8.24 | – | –
11 | COC(C)CC(=O)N[C@H]1CC[C@H](CCN2CCN(c3cccc4c3OCO4)CC2)CC1 (stereo partly drawn) [Example 21, Trans-N-{4-[2-(4-Benzo[1,3]dioxol-4-yl-piperazin-1-yl)-ethyl]-cyclohexyl}-3-methoxy-butyramide] | 6.74 | 7.61 | 8.56 | – | –
12 | O=C(C[C@@H]1CCCOC1)N[C@H]1CC[C@H](CCN2CCN(c3cccc4c3OCO4)CC2)CC1 (single isomer, unassigned) [Example 32, Trans-N-{4-[2-(4-Benzo[1,3]dioxol-4-yl-piperazin-1-yl)-ethyl]-cyclohexyl}-2-(S) or (R)-tetrahydro-pyran-3-yl-acetamide] | 6.86 | – | – | 7.58 | –
13 | O=C(C[C@@H]1COCCO1)N[C@H]1CC[C@H](CCN2CCN(c3cccc4c3OCO4)CC2)CC1 (single isomer, unassigned) [Example 5, Trans-N-{4-[2-(4-Benzo[1,3]dioxol-4-yl-piperazin-1-yl)-ethyl]-cyclohexyl}-2-(R) or (S)-[1,4]dioxan-2-yl-acetamide] | – | – | – | 7.91 | –
14 | CN(C)S(=O)(=O)N[C@H]1CC[C@H](CCN2CCN(c3cccc4c3OCO4)CC2)CC1 [Example 76, N-trans-{4-[2-(4-benzo[1,3]dioxol-4-yl-piperazin-1-yl)-ethyl]-cyclohexyl}-N,N-dimethyl-sulfamide] | 6.89 | 7.67 | 8.47 | – | –
15 | O=C(N[C@H]1CC[C@H](CCN2CCN(c3cccc4c3OCO4)CC2)CC1)C1CCOCC1 [Example 43, Tetrahydro-pyran-4-carboxylic acid-trans-N-{4-[2-(4-benzo[1,3]dioxol-4-yl-piperazin-1-yl)-ethyl]-cyclohexyl}-amide] | 6.66 | 8.11 | 8.35 | – | –
16 | O=C(C[C@H]1COCCO1)N[C@H]1CC[C@H](CCN2CCN(c3cccc4c3OCO4)CC2)CC1 (single isomer, unassigned) [Example 4, Trans-N-{4-[2-(4-Benzo[1,3]dioxol-4-yl-piperazin-1-yl)-ethyl]-cyclohexyl}-2-(S) or (R)[1,4]dioxan-2-yl-acetamide] | – | – | – | 8.11 | –
17 | O=C(C[C@H]1CCCOC1)N[C@H]1CC[C@H](CCN2CCN(c3cccc4c3OCO4)CC2)CC1 (single isomer, unassigned) [Example 33, Trans-N-{4-[2-(4-Benzo[1,3]dioxol-4-yl-piperazin-1-yl)-ethyl]-cyclohexyl}-2-(R) or (S)-tetrahydro-pyran-3-yl-acetamide] | 6.74 | – | – | 7.61 | –
18 | O=C(N[C@H]1CC[C@H](CCN2CCN(c3cccc4c3OCO4)CC2)CC1)c1ccc2c(c1)OCCO2 [Example 49, 2,3-Dihydro-benzo[1,4]dioxine-6-carboxylic acid-trans-N-{4-[2-(4-benzo[1,3]dioxol-4-yl-piperazin-1-yl)-ethyl]-cyclohexyl}-amide] | 5.32 | 7.97 | 8.34 | – | –
19 | COC1(C(=O)N[C@H]2CC[C@H](CCN3CCN(c4cccc5c4OCO5)CC3)CC2)CC1 [Example 62, 1-Methoxy-cyclopropanecarboxylic acid-trans-N-{4-[2-(4-benzo[1,3]dioxol-4-yl-piperazin-1-yl)-ethyl]-cyclohexyl}-amide] | 7.06 | 8.20 | 7.85 | – | –
20 | O=C(N[C@H]1CC[C@H](CCN2CCN(c3cccc4c3OCO4)CC2)CC1)C1CC1(F)F (stereo partly drawn) [Example 20, Trans-2,2-Difluoro-cyclopropanecarboxylic acid {4-[2-(4-benzo[1,3]dioxol-4-yl-piperazin-1-yl)-ethyl]-cyclohexyl}-amide] | 6.84 | 7.57 | 8.59 | – | –
